Here are results for one compound from ChEMBL document CHEMBL1143860, “Synthesis and biological activity of phosphatidylinositol-3,4,5-trisphosphorothioate” (Bioorg Med Chem Lett, 2008).

For this test, the system named is A6. The test can be described thus: Agonist activity at […] expressed in A6 cells assessed as increase in insulin-stimulated sodium transport at 50 uM. It counts as functional, cell-based.

Active and inactive are the calls of the source. The calls are words filed in the database; no cut-off is given here.

Turning to `CCCCCCCCCCCCCCCC(=O)OC[C@H](COP(=O)(O)O[C@H]1[C@H](O)[C@@H](OP(O)(O)=S)[C@H](OP(O)(O)=S)[C@@H](OP(O)(O)=S)[C@H]1O)OC(=O)CCCCCCCCCCCCCCC`, the result was Active.
